According to US20110028566A1, “COMPOSITIONS AND PRODUCTS CONTAINING CYCLOALIPHATIC DIOL ANTIMICROBIAL AGENTS AND METHODS OF USING THE COMPOSITIONS AND PRODUCTS” (EASTMAN CHEMICAL COMPANY, priority 2009, published 2011):

What was measured:
Test in all cases: Microbial challenge testing in BPW
Assay type in all cases: cell-based
[1] = test system: Staphylococcus epidermidis
Procedure, shortened: (§1)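 Test materials, dosed as w/v % in BPW pH 7.0 with 1% dextrose, were challenged with bacteria at 10^5–10^6 cfu/mL starting count. Inocula came from 96 h or longer TSB-dextrose cultures, and counts were checked by PCA spread-plating. Samples were incubated 14 days at 35 °C, then at ambient temperature.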

Bacillus subtilis = test system: Bacillus subtilis
Procedure, shortened: as §1

Pseudomonas aeruginosa = test system: Pseudomonas aeruginosa
Procedure, shortened: as §1

Streptococcus mutans = test system: Streptococcus mutans
Procedure, shortened: as §1

Escherichia coli = test system: Escherichia coli
Procedure, shortened: as §1

Staphylococcus aureus = test system: Staphylococcus aureus
Procedure, shortened: as §1

Burkholderia cepacia = test system: Burkholderia cepacia
Procedure, shortened: as §1

Aspergillus niger = test system: Aspergillus niger
Procedure, shortened: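 A. niger grown in TSB with 1% dextrose and on SDA at 22° C.±2° C; spores harvested, filtered, adjusted to 1.0×10^8 and checked by hemocytometer.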

Structure (SMILES): CC1(C)C(O)C(C)(C)C1O (stereo not drawn) [TMCD, 2,2,4,4-tetramethyl-1,3-cyclobutanediol]
- Grade code S. epidermidis ([1]; 0.5%, 3 days incubation): 4 (1001 to 10,000 colonies (thus 10,000 cfu/mL to 100,000 cfu/mL))
- Grade code S. epidermidis ([1]; 0.5%, 13 days incubation): 4 (1001 to 10,000 colonies (thus 10,000 cfu/mL to 100,000 cfu/mL))
- Grade code S. epidermidis ([1]; 0.5%, 30 days incubation): 4 (1001 to 10,000 colonies (thus 10,000 cfu/mL to 100,000 cfu/mL))
- Grade code S. epidermidis ([1]; 1.25%, 3 days incubation): 2 (52 to 100 colonies counted (thus 520 to 1000 cfu/mL))
- Grade code S. epidermidis ([1]; 1.25%, 13 days incubation): 3 (101 to 1000 colonies (thus 1000 to 10,000 cfu/mL))
- Grade code S. epidermidis ([1]; 1.25%, 30 days incubation): 4 (1001 to 10,000 colonies (thus 10,000 cfu/mL to 100,000 cfu/mL))
- Grade code S. epidermidis ([1]; 2.5%, 3 days incubation): 2 (52 to 100 colonies counted (thus 520 to 1000 cfu/mL))
- Grade code S. epidermidis ([1]; 2.5%, 13 days incubation): 2 (52 to 100 colonies counted (thus 520 to 1000 cfu/mL))
- Grade code S. epidermidis ([1]; 2.5%, 30 days incubation): 2 (52 to 100 colonies counted (thus 520 to 1000 cfu/mL))
- Grade code B. subtilis (Bacillus subtilis; 0.5%, 3 days incubation): 4 (1001 to 10,000 colonies (thus 10,000 cfu/mL to 100,000 cfu/mL))
- Grade code B. subtilis (Bacillus subtilis; 0.5%, 14 days incubation): 4 (1001 to 10,000 colonies (thus 10,000 cfu/mL to 100,000 cfu/mL))
- Grade code B. subtilis (Bacillus subtilis; 0.5%, 30 days incubation): 4 (1001 to 10,000 colonies (thus 10,000 cfu/mL to 100,000 cfu/mL))
- Grade code B. subtilis (Bacillus subtilis; 1.25%, 3 days incubation): 4 (1001 to 10,000 colonies (thus 10,000 cfu/mL to 100,000 cfu/mL))
- Grade code B. subtilis (Bacillus subtilis; 1.25%, 14 days incubation): 4 (1001 to 10,000 colonies (thus 10,000 cfu/mL to 100,000 cfu/mL))
- Grade code B. subtilis (Bacillus subtilis; 1.25%, 30 days incubation): 4 (1001 to 10,000 colonies (thus 10,000 cfu/mL to 100,000 cfu/mL))
- Grade code B. subtilis (Bacillus subtilis; 2.5%, 3 days incubation): 4 (1001 to 10,000 colonies (thus 10,000 cfu/mL to 100,000 cfu/mL))
- Grade code B. subtilis (Bacillus subtilis; 2.5%, 14 days incubation): 4 (1001 to 10,000 colonies (thus 10,000 cfu/mL to 100,000 cfu/mL))
- Grade code B. subtilis (Bacillus subtilis; 2.5%, 30 days incubation): 4 (1001 to 10,000 colonies (thus 10,000 cfu/mL to 100,000 cfu/mL))
- Grade code P. aeruginosa (Pseudomonas aeruginosa; 0.5%, 3 days incubation): 4 (1001 to 10,000 colonies (thus 10,000 cfu/mL to 100,000 cfu/mL))
- Grade code P. aeruginosa (Pseudomonas aeruginosa; 0.5%, 13 days incubation): 4 (1001 to 10,000 colonies (thus 10,000 cfu/mL to 100,000 cfu/mL))
- Grade code P. aeruginosa (Pseudomonas aeruginosa; 0.5%, 30 days incubation): 4 (1001 to 10,000 colonies (thus 10,000 cfu/mL to 100,000 cfu/mL))
- Grade code P. aeruginosa (Pseudomonas aeruginosa; 1.25%, 3 days incubation): 4 (1001 to 10,000 colonies (thus 10,000 cfu/mL to 100,000 cfu/mL))
- Grade code P. aeruginosa (Pseudomonas aeruginosa; 1.25%, 13 days incubation): 4 (1001 to 10,000 colonies (thus 10,000 cfu/mL to 100,000 cfu/mL))
- Grade code P. aeruginosa (Pseudomonas aeruginosa; 1.25%, 30 days incubation): 4 (1001 to 10,000 colonies (thus 10,000 cfu/mL to 100,000 cfu/mL))
- Grade code P. aeruginosa (Pseudomonas aeruginosa; 2.5%, 3 days incubation): 4 (1001 to 10,000 colonies (thus 10,000 cfu/mL to 100,000 cfu/mL))
- Grade code P. aeruginosa (Pseudomonas aeruginosa; 2.5%, 13 days incubation): 3 (101 to 1000 colonies (thus 1000 to 10,000 cfu/mL))
- Grade code P. aeruginosa (Pseudomonas aeruginosa; 2.5%, 30 days incubation): 4 (1001 to 10,000 colonies (thus 10,000 cfu/mL to 100,000 cfu/mL))
- Grade code S. mutans (Streptococcus mutans; 0.5%, 3 days incubation): 4 (1001 to 10,000 colonies (thus 10,000 cfu/mL to 100,000 cfu/mL))
- Grade code S. mutans (Streptococcus mutans; 0.5%, 13 days incubation): 4 (1001 to 10,000 colonies (thus 10,000 cfu/mL to 100,000 cfu/mL))
- Grade code S. mutans (Streptococcus mutans; 0.5%, 30 days incubation): 4 (1001 to 10,000 colonies (thus 10,000 cfu/mL to 100,000 cfu/mL))
- Grade code S. mutans (Streptococcus mutans; 1.25%, 3 days incubation): 4 (1001 to 10,000 colonies (thus 10,000 cfu/mL to 100,000 cfu/mL))
- Grade code S. mutans (Streptococcus mutans; 1.25%, 13 days incubation): 4 (1001 to 10,000 colonies (thus 10,000 cfu/mL to 100,000 cfu/mL))
- Grade code S. mutans (Streptococcus mutans; 1.25%, 30 days incubation): 4 (1001 to 10,000 colonies (thus 10,000 cfu/mL to 100,000 cfu/mL))
- Grade code S. mutans (Streptococcus mutans; 2.5%, 3 days incubation): 3 (101 to 1000 colonies (thus 1000 to 10,000 cfu/mL))
- Grade code S. mutans (Streptococcus mutans; 2.5%, 13 days incubation): 1 (1 to 51 colonies counted (thus 10 to 510 cfu/mL))
- Grade code S. mutans (Streptococcus mutans; 2.5%, 30 days incubation): 0 (No growth detected or <1 colony (thus <10 cfu/mL))
- Grade code E. coli (Escherichia coli; 0.5%, 3 days incubation): 5 (More than 10,000 colonies estimated (thus >100,000 cfu/mL))
- Grade code E. coli (Escherichia coli; 0.5%, 14 days incubation): 4 (1001 to 10,000 colonies (thus 10,000 cfu/mL to 100,000 cfu/mL))
- Grade code E. coli (Escherichia coli; 0.5%, 30 days incubation): 4 (1001 to 10,000 colonies (thus 10,000 cfu/mL to 100,000 cfu/mL))
- Grade code E. coli (Escherichia coli; 1.25%, 3 days incubation): 4 (1001 to 10,000 colonies (thus 10,000 cfu/mL to 100,000 cfu/mL))
- Grade code E. coli (Escherichia coli; 1.25%, 14 days incubation): 4 (1001 to 10,000 colonies (thus 10,000 cfu/mL to 100,000 cfu/mL))
- Grade code E. coli (Escherichia coli; 1.25%, 30 days incubation): 4 (1001 to 10,000 colonies (thus 10,000 cfu/mL to 100,000 cfu/mL))
- Grade code E. coli (Escherichia coli; 2.5%, 3 days incubation): 4 (1001 to 10,000 colonies (thus 10,000 cfu/mL to 100,000 cfu/mL))
- Grade code E. coli (Escherichia coli; 2.5%, 14 days incubation): 4 (1001 to 10,000 colonies (thus 10,000 cfu/mL to 100,000 cfu/mL))
- Grade code E. coli (Escherichia coli; 2.5%, 30 days incubation): 4 (1001 to 10,000 colonies (thus 10,000 cfu/mL to 100,000 cfu/mL))
- Grade code S. aureus (Staphylococcus aureus; 0.5%, 3 days incubation): 4 (1001 to 10,000 colonies (thus 10,000 cfu/mL to 100,000 cfu/mL))
- Grade code S. aureus (Staphylococcus aureus; 0.5%, 14 days incubation): 4 (1001 to 10,000 colonies (thus 10,000 cfu/mL to 100,000 cfu/mL))
- Grade code S. aureus (Staphylococcus aureus; 0.5%, 30 days incubation): 4 (1001 to 10,000 colonies (thus 10,000 cfu/mL to 100,000 cfu/mL))
- Grade code S. aureus (Staphylococcus aureus; 1.25%, 3 days incubation): 4 (1001 to 10,000 colonies (thus 10,000 cfu/mL to 100,000 cfu/mL))
- Grade code S. aureus (Staphylococcus aureus; 1.25%, 14 days incubation): 4 (1001 to 10,000 colonies (thus 10,000 cfu/mL to 100,000 cfu/mL))
- Grade code S. aureus (Staphylococcus aureus; 1.25%, 30 days incubation): 4 (1001 to 10,000 colonies (thus 10,000 cfu/mL to 100,000 cfu/mL))
- Grade code S. aureus (Staphylococcus aureus; 2.5%, 3 days incubation): 2 (52 to 100 colonies counted (thus 520 to 1000 cfu/mL))
- Grade code S. aureus (Staphylococcus aureus; 2.5%, 14 days incubation): 1 (1 to 51 colonies counted (thus 10 to 510 cfu/mL))
- Grade code S. aureus (Staphylococcus aureus; 2.5%, 30 days incubation): 1 (1 to 51 colonies counted (thus 10 to 510 cfu/mL))
- Grade code B. cepacia (Burkholderia cepacia; 0.5%, 3 days incubation): 4 (1001 to 10,000 colonies (thus 10,000 cfu/mL to 100,000 cfu/mL))
- Grade code B. cepacia (Burkholderia cepacia; 0.5%, 14 days incubation): 4 (1001 to 10,000 colonies (thus 10,000 cfu/mL to 100,000 cfu/mL))
- Grade code B. cepacia (Burkholderia cepacia; 0.5%, 30 days incubation): 4 (1001 to 10,000 colonies (thus 10,000 cfu/mL to 100,000 cfu/mL))
- Grade code B. cepacia (Burkholderia cepacia; 1.25%, 3 days incubation): 3 (101 to 1000 colonies (thus 1000 to 10,000 cfu/mL))
- Grade code B. cepacia (Burkholderia cepacia; 1.25%, 14 days incubation): 2 (52 to 100 colonies counted (thus 520 to 1000 cfu/mL))
- Grade code B. cepacia (Burkholderia cepacia; 1.25%, 30 days incubation): 4 (1001 to 10,000 colonies (thus 10,000 cfu/mL to 100,000 cfu/mL))
- Grade code B. cepacia (Burkholderia cepacia; 2.5%, 3 days incubation): 1 (1 to 51 colonies counted (thus 10 to 510 cfu/mL))
- Grade code B. cepacia (Burkholderia cepacia; 2.5%, 14 days incubation): 0 (No growth detected or <1 colony (thus <10 cfu/mL))
- Grade code B. cepacia (Burkholderia cepacia; 2.5%, 30 days incubation): 0 (No growth detected or <1 colony (thus <10 cfu/mL))
- Grade code A. niger (Aspergillus niger; 0.5%, 3 days incubation): 5
- Grade code A. niger (Aspergillus niger; 0.5%, 13 days incubation): 5
- Grade code A. niger (Aspergillus niger; 0.5%, 30 days incubation): 5
- Grade code A. niger (Aspergillus niger; 1.25%, 3 days incubation): 4
- Grade code A. niger (Aspergillus niger; 1.25%, 13 days incubation): 4
- Grade code A. niger (Aspergillus niger; 1.25%, 30 days incubation): 4
- Grade code A. niger (Aspergillus niger; 2.5%, 3 days incubation): 3 (Individual colonies not countable; >75% of plate covered with growth)
- Grade code A. niger (Aspergillus niger; 2.5%, 13 days incubation): 2 (Countable (11 to 100 colonies))
- Grade code A. niger (Aspergillus niger; 2.5%, 30 days incubation): 3 (Individual colonies not countable; >75% of plate covered with growth)
